The values that follow come from patent US20100029546A1, “preparation method of galactosyl-has magnetic nanoparticles containing adriamycin” (priority 2004, published 2010).

One data set concerns hepatocelular cell. In words: Apoptosis, quadrilateral zone in drug toxicity experiment. It is filed as cell-based.
A further data set deals with HepG2 cell. In words: Transwell invasion in vitro. Type of data set: cell-based. From the text:
The tumor cell's mobility and the invasion are close to each other. The tumor cell has the ability of amoeba type's movement, and it was confirmed by many people. Simultaneously, many overseas scholars reported that there is a direct ratio relation between the mobility and the invasion ability of the cancer cell. […] There is significant difference between any two groups. […] HSA-magnetic-adriamycin-nanoparticles group is different from galactosyl-HSA-adriamycin-nanoparticles group in it.

Data set [1] in a line: Drug release in vitro, dynamic dialysis. It is filed as physicochemical. The note with it: for Releasing (%): physiological saline. Here is the method:
Drug releases in vitro. According to dynamic dialysis, taking physiological saline as medium, 4 ml of the solution would be taken at certain time, and the same volume of the medium would be added in. The absorbency was measured to get the solving efficiency according to the standard curve formula. At the same time, the drug releasing experiment of adriamycin standard substance was done in order to observe the control release of the dialysis bag.

For data set [2] the following is noted: rabbit.
In the next data set the test system is liver cancer. In words: Animal test of liver cancer therapy, hepatic artery injection. Type of data set: in vivo. From the text: The result could be found in animal test: the group having NS hepatic artery injection lived 12.7 days on average; the group having lib-adriamycin hepatic artery injection lived 18.7 days on average; HSA-NP hepatic artery injection lived 20.7 days on average; the group having Gal-HAS-NP treatment lived 39.4 days on average.
Meanwhile, the aspiration of magnetic nanoparicles produced a longer functional diameter, which caused embolism in tumor blood vessels and lack of blood and oxygen in tumor in order to improve the sensitivity and effect of chemotherapeutics. Without adding magnetic field, the distribution rate of ADM-GHMN in tumorous and normal livers was 2.74, which also had some anti-tumor effects.

On to `COc1cccc2c1C(=O)c1c(O)c3c(c(O)c1C2=O)C[C@@](O)(C(=O)CO)C[C@@H]3O[C@H]1C[C@H](N)[C@H](O)[C@H](C)O1` [adriamycin], for which, in the data set with hepatocelular cell, the “characteristic quadrilateral zone present” value is given as “characteristic quadrilateral zone”. Besides, in the data set with HepG2 cell, the “inhibition of invasive power” value was “can inhibit invasive power of the HepG2 cell”. For the same compound, in data set [1] (0.5 h), the “Releasing (%)” value stood at 78.21%. For the same compound, the “Releasing (%)” value in data set [1] (1 h) is given as 91.34%. For the same compound, the “Releasing (%)” value in data set [1] (2 h) worked out at 100%. Further, the “release / releasing efficiency” value in data set [1] (time not stated (Tab 6)) is 91.34%. In data set [2], the C l was 0.4233 ± 0.3223 mg/m/(mg/l). The compound also registered a T1/2β in data set [2] (elimination phase) of 883.2164 ± 2198.4914 m. Further, in data set [2] (in vivo), the A is given as 0.1362 ± 0.0185 mg · l − 1, the “AUC0→∞” value came to 14.8163 ± 24.789 m · mg/l, the B is reported as 0.0109 ± 0.0028 mg · l − 1 and the Gamma amounted to 0.5463 ± 0.1663 m − 1. In data set [2] (in vivo), the T1/2α amounted to 13.8169 ± 3.5845 m, the V c was 18.6816 ± 2.3663 (mg)/(mg/l) and the α is recorded as 0.0523 ± 0.0161 m − 1. The average survival in the data set on liver cancer (hepatic artery injection) is 18.7 days. Moreover, the “tumor necrosis extent in pathological section” value in the data set on liver cancer (in vivo) was “no badly necrosis but most light or medium leveled necrosis”.
